Several values for one entry are separate records, joined by “and”; a condition that tells them apart may be missing. Equal values may be shown once.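 Values below derive from 48-hour exposures of cells grown in 96-well plates, with endpoints linearly interpolated between the two concentrations bracketing the appropriate inhibition level. The concentration for 50% growth inhibition is given as GI50. TGI is the concentration that stops growth completely.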
Legend:
Test in all cases: NCI-60 cell line screen, 48 h
BT-549 breast = tested on: BT-549 breast
PC-3 prostate = tested on: PC-3 prostate
MCF7 breast = tested on: MCF7 breast
DU-145 prostate = tested on: DU-145 prostate
T-47D breast = tested on: T-47D breast
NCI/ADR-RES ovarian = tested on: NCI/ADR-RES ovarian

Which results are given for `Cn1cc(/C=C2\C(=O)Nc3cccnc32)c2ccccc21`?
GI50 (BT-549 breast): > 25 µM; TGI (BT-549 breast): > 25 µM; GI50 (PC-3 prostate): 22.9 µM; TGI (PC-3 prostate): > 25 µM; GI50 (MCF7 breast): 8.04 µM; TGI (MCF7 breast): > 25 µM; GI50 (DU-145 prostate): 18 µM; TGI (DU-145 prostate): > 25 µM; GI50 (T-47D breast): > 17.1 µM; TGI (T-47D breast): > 25 µM; GI50 (NCI/ADR-RES ovarian): 20.4 µM; TGI (NCI/ADR-RES ovarian): > 25 µM

For `C/C(=N\n1c(N)c(C#N)c(-c2ccc(Cl)cc2)c(C#N)c1=O)c1cccnc1`, which GI50 (PC-3 prostate) is on record?
The GI50 was over 100 µM.

And the TGI (PC-3 prostate)?
The TGI was over 100 µM.

What about the GI50 (MCF7 breast) of the same compound?
The GI50 was over 100 µM.

What about the TGI (MCF7 breast) of the same compound?
The TGI was over 100 µM.

What about the GI50 (DU-145 prostate) of the same compound?
The GI50 was over 100 µM.

What about the TGI (DU-145 prostate) of the same compound?
Its TGI is over 100 µM.

What about the GI50 (T-47D breast) of the same compound?
Its GI50 is over 100 µM.

What about the TGI (T-47D breast) of the same compound?
The TGI was over 100 µM.

What about the GI50 (NCI/ADR-RES ovarian) of the same compound?
The GI50 was over 100 µM.

And the TGI (NCI/ADR-RES ovarian)?
The TGI was over 100 µM.

How did the TGI (BT-549 breast) turn out when `O=C1CCC(c2ccccc2)(c2ccccc2)CC1` was run?
The TGI was over 100 µM.

And the TGI (PC-3 prostate)?
The TGI was over 100 µM.

What about the TGI (MCF7 breast) of the same compound?
The TGI was over 100 µM.

And the TGI (DU-145 prostate)?
The TGI was over 100 µM.

What about the TGI (T-47D breast) of the same compound?
The TGI was over 100 µM.

What about the TGI (NCI/ADR-RES ovarian) of the same compound?
Its TGI is over 100 µM.

`Fc1ccc(-c2c(-c3ccncc3)n(CCN3CCOCC3)c3cccnc23)cc1` was tested. Which GI50 (BT-549 breast) did it give?
Its GI50 is over 25 µM.

What about the TGI (BT-549 breast) of the same compound?
Its TGI is over 25 µM.

What about the GI50 (PC-3 prostate) of the same compound?
Its GI50 is over 25 µM.

What about the TGI (PC-3 prostate) of the same compound?
Its TGI is over 25 µM.

And the GI50 (MCF7 breast)?
The GI50 was over 25 µM.

What about the TGI (MCF7 breast) of the same compound?
The TGI was over 25 µM.

What about the GI50 (DU-145 prostate) of the same compound?
Its GI50 is over 25 µM.

And the TGI (DU-145 prostate)?
The TGI was over 25 µM.

And the GI50 (T-47D breast)?
Its GI50 is over 25 µM.

And the TGI (T-47D breast)?
Its TGI is over 25 µM.

What about the GI50 (NCI/ADR-RES ovarian) of the same compound?
Its GI50 is over 25 µM.

What about the TGI (NCI/ADR-RES ovarian) of the same compound?
Its TGI is over 25 µM.

Which GI50 (BT-549 breast) does the source give for `NC(=NC1C2CC3CC(C2)CC1C3)Nc1ccc(I)cc1` (stereo not drawn) here?
The GI50 was 3.33 µM.

And the TGI (BT-549 breast)?
The TGI was 12.8 µM.

And the GI50 (PC-3 prostate)?
The GI50 was 3.14 µM.

What about the TGI (PC-3 prostate) of the same compound?
The TGI was 12.2 µM.

What about the GI50 (MCF7 breast) of the same compound?
The GI50 was 2.45 µM.

And the TGI (MCF7 breast)?
Its TGI is 10.7 µM.

What about the GI50 (DU-145 prostate) of the same compound?
The GI50 was 3.66 µM.

What about the TGI (DU-145 prostate) of the same compound?
Its TGI is 12.6 µM.

What about the GI50 (NCI/ADR-RES ovarian) of the same compound?
The GI50 was 4.59 µM.

What about the TGI (NCI/ADR-RES ovarian) of the same compound?
The TGI was 17.1 µM.

How did the GI50 (BT-549 breast) turn out when `CCOc1ccc(N2C(N)=NC(N)=NC2(C)C)cc1` was run?
Its GI50 is 84.3 µM.

What about the TGI (BT-549 breast) of the same compound?
The TGI was over 100 µM.

And the GI50 (PC-3 prostate)?
Its GI50 is 45.7 µM.

What about the TGI (PC-3 prostate) of the same compound?
Its TGI is over 100 µM.

And the GI50 (MCF7 breast)?
The GI50 was over 100 µM.

And the TGI (MCF7 breast)?
The TGI was over 100 µM.

What about the GI50 (DU-145 prostate) of the same compound?
Its GI50 is 71.9 µM.

And the TGI (DU-145 prostate)?
The TGI was over 100 µM.

What about the GI50 (T-47D breast) of the same compound?
The GI50 was over 100 µM.

What about the TGI (T-47D breast) of the same compound?
The TGI was over 100 µM.

What about the GI50 (NCI/ADR-RES ovarian) of the same compound?
Its GI50 is over 100 µM.

And the TGI (NCI/ADR-RES ovarian)?
Its TGI is over 100 µM.

`Cc1cc(I)cc(CN(C)CCCCN2CCCC2)c1O` was tested. Which GI50 (BT-549 breast) did it give?
The GI50 was 13.6 µM.

And the TGI (BT-549 breast)?
Its TGI is 33.5 µM.

And the GI50 (PC-3 prostate)?
The GI50 was 24.8 µM.

And the TGI (PC-3 prostate)?
Its TGI is 83.6 µM.

And the GI50 (MCF7 breast)?
Its GI50 is 16.9 µM.

What about the TGI (MCF7 breast) of the same compound?
Its TGI is 36.8 µM.

And the GI50 (DU-145 prostate)?
Its GI50 is 35.8 µM.

And the TGI (DU-145 prostate)?
Its TGI is over 100 µM.

What about the GI50 (T-47D breast) of the same compound?
The GI50 was 15.7 µM.

And the TGI (T-47D breast)?
The TGI was 40.4 µM.

And the GI50 (NCI/ADR-RES ovarian)?
Its GI50 is 35.2 µM.

And the TGI (NCI/ADR-RES ovarian)?
Its TGI is over 100 µM.

What does the source list for `CCn1cc(C2NC(=O)c3cc(F)ccc3N2)c2cccc(Cl)c21` (stereo not drawn)?
GI50 (BT-549 breast): 0.327 µM; TGI (BT-549 breast): > 100 µM; GI50 (PC-3 prostate): 0.296 µM; TGI (PC-3 prostate): > 100 µM; GI50 (MCF7 breast): 0.0913 µM; TGI (MCF7 breast): > 100 µM; GI50 (DU-145 prostate): 0.379 µM; TGI (DU-145 prostate): > 100 µM; GI50 (T-47D breast): 0.635 µM; TGI (T-47D breast): > 100 µM; GI50 (NCI/ADR-RES ovarian): 0.081 µM; TGI (NCI/ADR-RES ovarian): 0.75 µM

Which GI50 (BT-549 breast) does the source give for `O=C(O)c1c(Cl)c(Cl)c(Cl)c(Cl)c1-c1c2cc(I)c(=O)c(I)c-2oc2c(I)c(O)c(I)cc12` here?
The GI50 was 26.9 µM and 35.9 µM.

And the TGI (BT-549 breast)?
Its TGI is 82.6 µM and 83.2 µM.

And the GI50 (PC-3 prostate)?
Its GI50 is 39.8 µM and 42.3 µM.

And the TGI (PC-3 prostate)?
Its TGI is 89.3 µM.

And the GI50 (MCF7 breast)?
The GI50 was 83.5 µM.

What about the TGI (MCF7 breast) of the same compound?
The TGI was over 200 µM.

What about the GI50 (DU-145 prostate) of the same compound?
The GI50 was 37.2 µM.

And the TGI (DU-145 prostate)?
The TGI was 94.3 µM.

And the GI50 (T-47D breast)?
The GI50 was 29.4 µM.

What about the TGI (T-47D breast) of the same compound?
The TGI was 78.2 µM.

What about the GI50 (NCI/ADR-RES ovarian) of the same compound?
The GI50 was over 200 µM.

And the TGI (NCI/ADR-RES ovarian)?
The TGI was over 200 µM.

Reference: PubChem BioAssay (NCI)
